The test system of assay [1] is Rat macrophage antigen presentation and the subsequent production of Interleukin-2. Description: Regulation of macrophage antigen presentation (mBSA) to rat T-cell hybridoma, Interleukin-2 measured. In kind it is cell-based, Lewis (LEW/N) rat. The method, then: Using the method of Ku (Cellular Immunology 130,(1990)) and a Lewis (LEW/N) rat T-cell hybridoma reactive with the protein methylated bovine serum albumin (mBSA), the ability of a compound of formula (1) to regulate M.phi. antigen presentation in vitro may be measured. Peritoneal macrophages obtained from LEW/N rats are plated into tissue culture and treated with 100 ug of mBSA and drug. A control is prepared similarly. After a period of 18 hours the cells are washed and incubated with the T-cell hybridoma for an additional 12 hours. Supernatants from these cultures are obtained and measured for content of Interleukin-2, a T-cell derived lymphokine which is produced by activated T-cells.

The subject of assay [2] is endotoxin-induced septic shock. Description: Mouse endotoxin lethality model (D-galactosamine and LPS). In kind it is in vivo, CF1 mice. The settings on record: 100 mg/kg i.p., pretreated at t=-1 hr; death observed over 8-72 hours. The method, then: Using the method of Silverstein, (J. Exp. Med. 173, 357 (1991)) a mouse endotoxin lethality model may be used to determine if a compound of formula (1) has the ability to inhibit endotoxin-induced septic shock which is dependent on the production of Tumor Necrosis Factor-α (TNF-α). CF1 mice pretreated at time (t)=-1 hr with drug are challenged with 18 mg of D-glactoseamine and 50 ng of LPS, then observed for death over an 8-72 hour period.

Usually inhibition stands for the share of the control response that was lost under treatment.

Where a name gives a salt, the structure may show the parent alone.

With `Nc1ncnc2c1ncn2[C@@H]1CC[C@@H](O)C1` [(1R,3R)-TRANS-1(9-ADENYL)CYCLOPENTAN-3-OL HYDROCHLORIDE], the “T-cell activation / antigen presentation and Interleukin-2 production (in words)” value in assay [1] (0.1 to 100 uM) was “inhibits T-cell activation”. Besides, the inhibition at 0.1 µM in assay [1] (Rattus norvegicus, Macrophage, In Vitro Concentration 0.1 uM, IL-2 production) is 7.6%. In assay [1] (Rattus norvegicus, Macrophage, In Vitro Concentration 1.0 uM, IL-2 production), this compound registered an inhibition at 1 µM of 30.9%. The inhibition at 10 µM in assay [1] (Rattus norvegicus, Macrophage, In Vitro Concentration 10.0 uM, IL-2 production) was 48.7%. This compound also displayed an inhibition at 100 µM in assay [1] (Rattus norvegicus, Macrophage, In Vitro Concentration 100.0 uM, IL-2 production) of 55.3%. Moreover, the “protection against endotoxin lethality” value in assay [2] is listed as “protects against endotoxin lethality”.

(Values after US5916892A, “Trans cyclopentanyl deazaadenyl analogs useful as immunosuppressants” (Hoechst Marion Roussel, Inc., priority 1997, dated 1999).)
